Test: refractive index (other wavelength) (dimensionless); xn = mol fraction of the nth substance listed
Conditions: 94.64 kPa, Liquid, Standard Abbe refractometry, x1 = 1

CC(O)CO (stereo not drawn) [1,2-propanediol] + OCCCO
refractive index
Conditions | Wavelength=404.7 nm | Wavelength=435.8 nm | Wavelength=486.1 nm | Wavelength=546.1 nm | Wavelength=587.6 nm | Wavelength=632.8 nm | Wavelength=644 nm | Wavelength=706.5 nm
293.15 K | 1.445 | 1.44204 | 1.43722 | 1.43406 | 1.43227 | 1.43023 | 1.43008 | 1.42866
298.15 K | 1.4429 | 1.43967 | 1.43566 | 1.43245 | 1.4305 | 1.429 | 1.4289 | 1.42701
303.15 K | 1.44135 | 1.43785 | 1.43417 | 1.43096 | 1.42927 | 1.42774 | 1.42734 | 1.42571
308.15 K | 1.43955 | 1.43622 | 1.43239 | 1.42919 | 1.42752 | 1.426 | 1.42565 | 1.42397
313.15 K | 1.43771 | 1.43437 | 1.43055 | 1.42738 | 1.42572 | 1.4242 | 1.42386 | 1.42219
318.15 K | 1.43584 | 1.43252 | 1.42875 | 1.42557 | 1.42392 | 1.42243 | 1.42208 | 1.42043

— the NIST ThermoML archive (doi:10.1016/j.jct.2016.01.019)
